In US20230150924A1, “NOVEL COMPOUND HAVING CANCER METASTASIS INHIBITORY ACTIVITY, PREPARATION METHOD THEREFOR, AND PHARMACEUTICAL COMPOSITION FOR INHIBITING CANCER METASTASIS AND INVASION OR TREATING COLORECTAL CANCER, COMPRISING COMPOUND” (CELLGENTEK CO., LTD., priority 2019, published 2023):
Read-outs that look alike come from different tables or passages of the source.

Experiments:
KAI1 promoter = KAI1 promoter luciferase reporter assay in transfected Caco2 cells; format: cell-based, human; conditions: Homo sapiens, Caco-2, 16 h, read-out: Relative KAI promoter activity
[1] = tested on: invasion of colorectal cancer cells; assay: In vivo relative invation (invasion; EV and KITENIN controls, no method described); conditions: relative to EV (=1); KIT = KITENIN
[2] = 1 μM compound, 16 hours, transfected Caco2 cells, luciferase activity relative to DMSO control (=1)

O=C(CNC(=O)c1ccccc1OC1CCN(C(=O)C2CCC2)CC1)c1ccccc1 [Example 167, 2-((1-(cyclobutanecarbonyl)piperidin-4-yl)oxy)-N-(2-oxo-2-phenylethyl)benzamide]
fold induction at 1 µM (KAI1 promoter; [2]): 1.04
In vivo relative invation [1]: 1.159

CC(C)(C)CC(=O)NCC(=O)c1ccccc1 [Example 19, 3,3-dimethyl-N-(2-oxo-2-phenylethyl) butanamide]
fold induction at 1 µM (KAI1 promoter; [2]): 0.98
In vivo relative invation [1]: 1.201

CCCc1ccccc1NC(=O)COc1ccccc1C(=O)NCC(=O)c1ccccc1 [Example 210, 2-(2-oxo-2-((2-propylphenyl)amino)ethoxy)-N-(2-oxo-2-phenylethyl)benzamide]
fold induction at 1 µM (KAI1 promoter; [2]): 1.03
In vivo relative invation [1]: 0.9274

COc1cccc(C(=O)CNC(=O)c2cccs2)c1 [Example 127, N-(2-(3-methoxyphenyl)-2-oxoethyl)thiophene-2-carboxamide]
fold induction at 1 µM (KAI1 promoter; [2]): 2.46
In vivo relative invation [1]: 1.351

C=CCN(CC=C)Cc1ccc(C(=O)NCC(=O)c2ccccc2)cc1 [Example 265, 4-((diallylamino)methyl)-N-(2-oxo-2-phenylethyl)benzamide]
fold induction at 1 µM (KAI1 promoter; [2]): 1.91
In vivo relative invation [1]: 1.343

CN(C)c1ccc(C(=O)CNC(=O)c2cccs2)cc1 [Example 101, N-(2-(4-(dimethylamino)phenyl)-2-oxoethyl)thiophene-2-carboxamide]
fold induction at 1 µM (KAI1 promoter; [2]): 3.04
In vivo relative invation [1]: 0.8815

CCC(=O)NCC(=O)c1ccc(N2CCOCC2)cc1 [Example 142, N-(2-(4-morpholinophenyl)-2-oxoethyl)propionamide]
fold induction at 1 µM (KAI1 promoter; [2]): 1.12
In vivo relative invation [1]: 1.8

CCN(Cc1ccc(C(=O)NCC(=O)c2ccccc2)cc1)c1ccccc1 [Example 263, 4-((ethyl(phenyl)amino)methyl)-N-(2-oxo-2-phenylethyl)benzamide]
fold induction at 1 µM (KAI1 promoter; [2]): 2.23
In vivo relative invation [1]: 1.301

COc1ccc(NC(=O)COc2ccccc2C(=O)NCC(=O)c2ccccc2)cc1OC [Example 216, 2-(2-((3,4-dimethoxyphenyl)amino)-2-oxoethoxy)-N-(2-oxo-2-phenylethyl)benzamide]
fold induction at 1 µM (KAI1 promoter; [2]): 1.2
In vivo relative invation [1]: 1.255

Cc1ccccc1C(=O)N1CCC(Oc2ccccc2C(=O)NCC(=O)c2ccccc2)CC1 [Example 161, 2-((1-(2-methylbenzoyl)piperidin-4-yl)oxy)-N-(2-oxo-2-phenylethyl)benzamide]
fold induction at 1 µM (KAI1 promoter; [2]): 0.95
In vivo relative invation [1]: 1.121

O=C(CNC(=O)c1ccco1)c1ccccc1 [Example 5, N-(2-oxo-2-phenylethyl)furan-2-carboxamide]
fold induction at 1 µM (KAI1 promoter): 1.98
In vivo relative invation [1]: 0.812

O=C(CNC(=O)c1ccccc1OC1CCN(C(=O)c2cc(C(F)(F)F)cc(C(F)(F)F)c2)CC1)c1ccccc1 [Example 190, 2-((1-(3,5-bis(trifluoromethyl)benzoyl)piperidin-4-yl)oxy)-N-(2-oxo-2-phenylethyl)benzamide]
fold induction at 1 µM (KAI1 promoter; [2]): 0.83
In vivo relative invation [1]: 1.203

Cc1ccc(S(=O)(=O)NCC(=O)c2ccc(Cl)cc2)cc1 [Example 68, N-(2-(4-chlorophenyl)-2-oxoethyl)-4-methylbenzenesulfonamide]
fold induction at 1 µM (KAI1 promoter; [2]): 0.88
In vivo relative invation [1]: 1.125

O=C(CNC(=O)c1ccc(F)cc1Cl)c1ccccc1 [Example 33, 2-chloro-4-fluoro-N-(2-oxo-2-phenylethyl)benzamide]
fold induction at 1 µM (KAI1 promoter; [2]): 1.78
In vivo relative invation [1]: 0.7513

O=C(CNC(=O)c1ccc(OC(F)(F)F)cc1)c1ccc(Cl)cc1 [Example 81, N-(2-(4-chlorophenyl)-2-oxoethyl)-4-(trifluoromethoxy)benzamide]
fold induction at 1 µM (KAI1 promoter; [2]): 0.8
In vivo relative invation [1]: 1.142

O=C(CNC(=O)c1ccc(CN2CCC(N3CCCCC3)CC2)cc1)c1ccccc1 [Example 260, 4-([1,4′-bipiperidin]-1′-ylmethyl)-N-(2-oxo-2-phenylethyl)benzamide]
fold induction at 1 µM (KAI1 promoter; [2]): 1.33
In vivo relative invation [1]: 1.092

COc1cccc(C(=O)CNC(=O)C2CC2)c1 [Example 125, N-(2-(3-methoxyphenyl)-2-oxoethyl)cyclopropanecarboxamide]
fold induction at 1 µM (KAI1 promoter; [2]): 1.48
In vivo relative invation [1]: 0.8965

C=CC(=O)N1CCC(Oc2ccccc2C(=O)NCC(=O)c2ccccc2)CC1 [Example 160, 2-((1-acryloylpiperidin-4-yl)oxy)-N-(2-oxo-2-phenylethyl)benz amide]
fold induction at 1 µM (KAI1 promoter; [2]): 1.05
In vivo relative invation [1]: 1.067

CN(C)c1ccc(C(=O)CNS(=O)(=O)c2ccc(F)cc2)cc1 [Example 107, N-(2-(4-(dimethylamino)phenyl)-2-oxoethyl)-4-fluorobenzenesulfonamide]
fold induction at 1 µM (KAI1 promoter; [2]): 2.07
In vivo relative invation [1]: 0.9868

COc1cc(OC)cc(C(=O)NCC(=O)c2ccc(N(C)C)cc2)c1 [Example 121, N-(2-(4-(dimethylamino)phenyl)-2-oxoethyl)-3,5imethoxybenzamide]
fold induction at 1 µM (KAI1 promoter; [2]): 0.96
In vivo relative invation [1]: 1.203

O=C(CNC(=O)c1cccs1)c1ccc(Cl)cc1 [Example 58, N-(2-(4-chlorophenyl)-2-oxoethyl)thiophene-2-carboxamide]
fold induction at 1 µM (KAI1 promoter; [2]): 0.91
In vivo relative invation [1]: 1.244

COc1ccc(NC(=O)COc2ccccc2C(=O)NCC(=O)c2ccccc2)cc1F [Example 207, 2-(2-((3-fluoro-4-methoxyphenyl)amino)-2-oxoethoxy)-N-(2-oxo-2-phenylethyl)benzamide]
fold induction at 1 µM (KAI1 promoter; [2]): 1.43
In vivo relative invation [1]: 1.036

O=C(CNC(=O)C1CCCCC1)c1ccccc1 [Example 15, N-(2-oxo-2-phenylethyl)cyclohexanecarboxamide]
fold induction at 1 µM (KAI1 promoter; [2]): 1.74
In vivo relative invation [1]: 1.17

CN(C)c1ccc(C(=O)CNC(=O)c2ccccc2C(F)(F)F)cc1 [Example 112, N-(2-(4-(dimethylamino)phenyl)-2-oxoethyl)-2-(trifluoromethyl)benzamide]
fold induction at 1 µM (KAI1 promoter; [2]): 2.82
In vivo relative invation [1]: 0.9835

COc1cccc(C(=O)CNC(=O)c2cccc(CN3CCc4ccccc4C3)c2)c1 [Example 279, 3-((3,4-dihydroisoquinolin-2(1H)-yl)methyl)-N-(2-(3-methoxyphenyl)-2-oxoethyl)benzamide]
fold induction at 1 µM (KAI1 promoter; [2]): 2.28
In vivo relative invation [1]: 1.187

O=C(CNC(=O)c1ccccc1OC1CCN(C(=O)c2cccc(Cl)c2Cl)CC1)c1ccccc1 [Example 198, 2-((1-(2,3-dichlorobenzoyl)piperidin-4-yl)oxy)-N-(2-oxo-2-phenylethyl)benzamide]
fold induction at 1 µM (KAI1 promoter; [2]): 0.87
In vivo relative invation [1]: 1.15

O=C(CNC(=O)c1ccc(CN2CCN(c3ccc([N+](=O)[O-])cc3)CC2)cc1)c1ccccc1 [Example 261, 4-((4-(4-nitrophenyl)piperazin-1-yl)methyl)-N-(2-oxo-2-phenylethyl)benzamide]
fold induction at 1 µM (KAI1 promoter; [2]): 1.25
In vivo relative invation [1]: 1.197

O=C(CNC(=O)c1ccc(Cl)cc1)c1ccccc1 [Example 1, 4-chloro-N-(2-oxo-2-phenylethyl)benzamide]
fold induction at 1 µM (KAI1 promoter): 1.7
In vivo relative invation [1]: 0.9672

O=C(CNS(=O)(=O)c1cccc([N+](=O)[O-])c1)c1ccccc1 [Example 21, 3-nitro-N-(2-oxo-2-phenylethyl)benzenesulfonamide]
fold induction at 1 µM (KAI1 promoter; [2]): 0.99
In vivo relative invation [1]: 1.099

CCN(CCO)Cc1ccc(C(=O)NCC(=O)c2ccccc2)cc1 [Example 274, 4-((ethyl(2-hydroxyethyl)amino)methyl)-N-(2-oxo-2-phenylethyl)benzamide]
fold induction at 1 µM (KAI1 promoter; [2]): 5.27
In vivo relative invation [1]: 1.219

CCCCC(=O)N1CCC(Oc2ccccc2C(=O)NCC(=O)c2ccccc2)CC1 [Example 172, N-(2-oxo-2-phenylethyl)-2-((1-pentanoylpiperidin-4-yl)oxy)benzamide]
fold induction at 1 µM (KAI1 promoter; [2]): 0.93
In vivo relative invation [1]: 1.16

COc1ccc(C(=O)NCC(=O)c2ccc(Cl)cc2)cc1 [Example 52, N-(2-(4-chlorophenyl)-2-oxoethyl)-4-methoxybenzamide]
fold induction at 1 µM (KAI1 promoter; [2]): 1.36
In vivo relative invation [1]: 1.158

Cc1ccccc1C(=O)NCC(=O)c1ccc(Cl)cc1 [Example 51, N-(2-(4-chlorophenyl)-2-oxoethyl)-2-methylbenzamide]
fold induction at 1 µM (KAI1 promoter; [2]): 1.81
In vivo relative invation [1]: 1.513

O=C(CNC(=O)c1ccccc1CN1CCN(c2ccccc2F)CC1)c1ccccc1 [Example 299, 2-((4-(2-fluorophenyl)piperazin-1-yl)methyl)-N-(2-oxo-2-phenylethyl)benzamide]
fold induction at 1 µM (KAI1 promoter; [2]): 2.17
In vivo relative invation [1]: 1.068

O=C(CNC(=O)C1CC1)c1ccccc1 [Example 16, N-(2-oxo-2-phenylethyl)cyclopropanecarboxamide]
fold induction at 1 µM (KAI1 promoter; [2]): 0.92
In vivo relative invation [1]: 0.9645

Cc1cc(C)cc(C(=O)NCC(=O)c2ccccc2)c1 [Example 40, 3,5=dimethyl-N-(2-oxo-2-phenylethyl)benzamide]
fold induction at 1 µM (KAI1 promoter; [2]): 1
In vivo relative invation [1]: 1.173

CN(C)c1ccc(C(=O)CNC(=O)c2ccc(F)cc2)cc1 [Example 91, N-(2-(4-(dimethylamino)phenyl)-2-oxoethyl)-4-fluorobenzamide]
fold induction at 1 µM (KAI1 promoter; [2]): 2.44
In vivo relative invation [1]: 1.058

CCOC(=O)N1CCN(Cc2ccc(C(=O)NCC(=O)c3ccccc3)cc2)CC1 [Example 277, ethyl 4-(4-((2-oxo-2-phenylethyl)carbamoyl)benzyl)piperazine-1-carboxylate]
fold induction at 1 µM (KAI1 promoter; [2]): 1.3
In vivo relative invation [1]: 1.126

CN(C)c1ccc(C(=O)CNC(=O)c2ccc(F)cc2F)cc1 [Example 105, N-(2-(4-(dimethylamino)phenyl)-2-oxoethyl)-2,4ifluorobenzamide]
fold induction at 1 µM (KAI1 promoter; [2]): 1.25
In vivo relative invation [1]: 1.079

O=C(CNC(=O)c1cccc(Cl)c1)c1ccc(Cl)cc1 [Example 47, 3-chloro-N-(2-(4-chlorophenyl)-2-oxoethyl)benzamide]
fold induction at 1 µM (KAI1 promoter; [2]): 0.76
In vivo relative invation [1]: 0.9038
